One assay addresses Melanocortin receptor 4 (Mus musculus, UniProt P56450). The assay is described as follows: Agonist activity at mouse melanocortin 4 receptor expressed in HEK293 cells by AlphaScreen cAMP assay. The assay is classed as functional, cell-based.
Assay [1] has as its target Melanocortin receptor 5 (Mus musculus) (UniProt P41149). The assay is described as follows: Agonist activity at mouse melanocortin 5 receptor expressed in HEK293 cells at 100 uM by AlphaScreen cAMP assay. Type of assay: functional, cell-based. On the technique in general: Bead proximity is the source of the signal in Alpha formats.
For assay [2], the target named is Melanocortin receptor 4 (Mus musculus) (UniProt P56450). The assay can be described thus: Antagonist activity at mouse melanocortin 4 receptor expressed in HEK293 cells using NDP-MSH as agonist by Schild analysis. The assay is classed as cell-based.
The target of assay [3] is Melanocyte-stimulating hormone receptor (Mus musculus, UniProt Q01727). The assay can be described thus: Agonist activity at mouse melanocortin 1 receptor expressed in HEK293 cells by AlphaScreen cAMP assay. The assay is classed as functional, cell-based.
The target of assay [4] is Melanocortin receptor 3 (Mus musculus) (UniProt P33033). The assay is described as follows: Antagonist activity at mouse melanocortin 3 receptor expressed in HEK293 cells using NDP-MSH as agonist by Schild analysis. Type of assay: cell-based.
The target is the same in assay [5]. The assay can be described thus: Agonist activity at mouse melanocortin 3 receptor expressed in HEK293 cells at 100 uM by AlphaScreen cAMP assay. The assay is classed as functional, cell-based.

Activity calls are given as the source filed them. The rule behind the calls is not given here.

Chain of Melanocortin receptor 3 (Mus musculus) (P33033 whole entry): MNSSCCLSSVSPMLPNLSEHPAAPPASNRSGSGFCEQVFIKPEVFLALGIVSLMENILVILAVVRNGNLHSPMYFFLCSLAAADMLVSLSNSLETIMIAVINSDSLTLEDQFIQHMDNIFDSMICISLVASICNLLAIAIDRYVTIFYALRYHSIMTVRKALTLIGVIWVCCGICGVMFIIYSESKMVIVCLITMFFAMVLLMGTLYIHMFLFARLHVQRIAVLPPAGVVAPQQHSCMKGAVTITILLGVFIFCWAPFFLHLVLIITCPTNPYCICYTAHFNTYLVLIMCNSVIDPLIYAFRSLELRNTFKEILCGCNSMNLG
Chain of Melanocortin receptor 5 (Mus musculus) (P41149 whole entry): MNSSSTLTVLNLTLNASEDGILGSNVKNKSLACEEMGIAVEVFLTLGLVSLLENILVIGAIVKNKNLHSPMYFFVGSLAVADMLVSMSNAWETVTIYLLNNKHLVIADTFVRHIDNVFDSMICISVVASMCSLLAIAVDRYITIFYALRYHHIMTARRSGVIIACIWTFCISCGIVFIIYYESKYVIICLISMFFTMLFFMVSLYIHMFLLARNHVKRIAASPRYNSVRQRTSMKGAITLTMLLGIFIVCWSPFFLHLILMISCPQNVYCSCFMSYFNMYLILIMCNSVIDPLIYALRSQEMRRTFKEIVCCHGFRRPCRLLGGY
Chain of Melanocortin receptor 4 (Mus musculus) (P56450 whole entry): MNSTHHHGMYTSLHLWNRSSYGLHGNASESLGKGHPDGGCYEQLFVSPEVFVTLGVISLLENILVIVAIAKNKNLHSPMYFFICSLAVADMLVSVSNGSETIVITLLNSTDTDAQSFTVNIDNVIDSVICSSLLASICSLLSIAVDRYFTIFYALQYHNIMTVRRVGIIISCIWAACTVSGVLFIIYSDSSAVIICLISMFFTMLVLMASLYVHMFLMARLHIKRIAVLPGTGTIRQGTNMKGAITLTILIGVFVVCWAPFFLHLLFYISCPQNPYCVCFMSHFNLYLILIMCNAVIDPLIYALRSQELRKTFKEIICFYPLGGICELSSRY
Chain of Melanocortin receptor 4 (P56450 whole entry): as above
Chain of Melanocyte-stimulating hormone receptor (Q01727 whole entry): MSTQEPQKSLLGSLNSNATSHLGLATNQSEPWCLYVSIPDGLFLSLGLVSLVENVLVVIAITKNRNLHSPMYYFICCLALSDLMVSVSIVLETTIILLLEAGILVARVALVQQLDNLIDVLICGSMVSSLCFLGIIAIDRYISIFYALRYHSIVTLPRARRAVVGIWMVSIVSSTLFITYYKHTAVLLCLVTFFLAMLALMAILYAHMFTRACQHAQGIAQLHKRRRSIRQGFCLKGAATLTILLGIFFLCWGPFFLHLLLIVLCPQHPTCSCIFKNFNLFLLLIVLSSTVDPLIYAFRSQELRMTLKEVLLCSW

Take Ac-EIAEVLARWTGIPV-NH2: the EC50 was above 100 µM at Melanocortin receptor 4 and 41 µM in assay [3]. In addition, the Activity in assay [1] amounted to 50%; in assay [5], 30%. Further, the inhibition entry in assay [2] and in assay [4] was “inactive” in each case.

The EC50 is the concentration giving half of the maximal effect.

Values taken from ChEMBL document CHEMBL3627609, “A fragment of the Escherichia coli ClpB heat-shock protein is a micromolar melanocortin 1 receptor agonist” (Bioorg Med Chem Lett, 2015).
